In US11248243B2, “Process for the biological production of methacrylic acid and derivatives thereof” (MITSUBISHI CHEMICAL UK LIMITED, priority 2015, dated 2022):
Each block holds one compound with its values, some of them ahead of it.

Tests used:
[1] = tested on: acyl-CoA synthetase AcsA; conditions: published value, cited from earlier work
[2] = target: T1, 4-hydroxybenzoyl-CoA thioesterase (4HBT) (Arthrobacter sp, UniProt Q04416); test: Crude enzymatic assays of 4HBT cell free extract (DTNB, 412 nm); assay type: biochemical, Arthrobacter sp. strain SU; conditions: cell free protein extract 1 mg/ml
T1 construct: made in house; host or cells: E. coli BL21 (DE3) pLysS pET20b(+)::4HBT, cell free extract
T1 sequence (Q04416 whole entry): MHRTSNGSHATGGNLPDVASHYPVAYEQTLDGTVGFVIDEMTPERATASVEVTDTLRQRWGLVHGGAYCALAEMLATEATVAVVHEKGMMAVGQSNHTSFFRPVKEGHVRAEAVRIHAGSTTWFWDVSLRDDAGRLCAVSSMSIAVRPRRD
Procedure: To prepare a cell free extract of the 4HBT enzyme, one of the cell pellets of E. coli BL21 (DE3) pLysS pET20b(+)::4HBT that was prepared previously was re-suspended in HEPES (50 mM, pH 7.5) assay buffer and lysed in a Constant Systems One Shot cell disrupter. The cell lysate was centrifuged at 18,000 g for 15 min at 4° C. and the supernatant of this was centrifuged at 57,750 g for a further 60 min at 4° C. This supernatant was washed using a VivaSpin Viva6 10,000 Molecular Weight Cut-Off centrifugal concentrator, centrifuging at 10,000 g at 18° C. until a six-fold volume reduction, followed by a six-fold re-dilution in the HEPES assay buffer and a further 6-fold volume reduction in the centrifugal concentrator. The total protein concentration of the cell free extracts from E. coli BL21 (DE3) pLysS pET20b(+)::4HBT overexpression cultures was performed using the BioRad DC assay kit, using bovine serum albumin as the protein standard. The same procedure was followed in order to prepare cell free extracts from a cell pellet of the E. coli BL21 (DE3) pLysS pET20b(+), the negative control strain.
Crude enzymatic assays of 4HBT were performed in cuvettes (1 ml) containing cell free protein extract (1 mg·ml^−1), methacrylyl-CoA (approximately 100 μM), 5′5-dithiobis-(2-nitrobenzoic) acid (DTNB) (500 μM). Reactions were started by the addition of substrate and were monitored at 412 nm. […]

[3] = target: T2, short chain acyl-CoA oxidase (ACX4) (Arabidopsis thaliana, UniProt Q96329); test: Activity test of ACX4 cell free extract, HPLC analysis; assay type: biochemical; conditions: ACX4 cell free extract 0.8 mg/ml, isobutyryl-CoA 500 μM, FAD 10 μM, HEPES pH 7.5, 30° C., 30 min
T2 construct: made in house; host or cells: E. coli BL21 (DE3) pLysS pET20b(+)::ACX4, cell free extract
T2 sequence (Q96329 1-436): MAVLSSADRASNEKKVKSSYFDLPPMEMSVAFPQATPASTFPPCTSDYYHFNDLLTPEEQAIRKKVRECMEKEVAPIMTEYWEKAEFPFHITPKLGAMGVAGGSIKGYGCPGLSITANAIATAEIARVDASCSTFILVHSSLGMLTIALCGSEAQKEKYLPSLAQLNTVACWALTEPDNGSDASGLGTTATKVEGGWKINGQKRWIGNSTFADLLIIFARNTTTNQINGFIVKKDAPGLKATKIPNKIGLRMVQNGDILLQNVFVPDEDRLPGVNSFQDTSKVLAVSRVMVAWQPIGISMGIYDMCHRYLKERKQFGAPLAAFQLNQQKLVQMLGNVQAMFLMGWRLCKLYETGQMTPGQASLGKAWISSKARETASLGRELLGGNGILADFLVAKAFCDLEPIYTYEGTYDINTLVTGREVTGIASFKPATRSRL
Procedure: To prepare a cell free extract of the ACX4 enzyme, one of the cell pellets that was prepared previously was re-suspended in HEPES (50 mM, pH 7.5) buffer (6 ml) that was supplemented with flavin adenine dinucleotide (FAD) at a final concentration of 10 μM. The re-suspended cells were then lysed in a Constant Systems One Shot cell disrupter. The lysate was centrifuged at 18,000 g for 15 min at 4° C. and the supernatant of this was further centrifuged at […] for 60 min at 4° C. The supernatant was concentrated in a VivaSpin Viva6 10,000 Molecular Weight Cut-Off centrifugal concentrator, centrifuging at 10,000 g at 18° C. until a six-fold volume reduction of the retentate. […] The total protein concentration in the retentate was determined using the BioRad DC protein assay kit, using bovine serum albumin as the protein standard. […]
The activity test of ACX4 was performed in 1.5 ml micro-centrifuge tubes. […] The reaction was incubated at 30° C. in the 1.5 ml micro-centrifuge tube, with shaking at 250 rpm for 30 min and the final reaction product was analysed by analytical HPLC (FIG. 5). […]
In order to confirm that the methacrylyl-CoA peak was genuine, and that it was not an isobutyryl-CoA peak with a shifted elution time, the sample was spiked with isobutyryl-CoA and analysed by HPLC again. […]

Compound: CC(C)C(=O)O [isobutyric acid]
turnover number (kcat) [1]: 10.6 s⁻¹ | Km ([1]; read-out: Michaelis constant (Km)): 140 µM

Compound: C=C(C)C(=O)SCCNC(=O)CCNC(=O)[C@H](O)C(C)(C)COP(=O)(O)OP(=O)(O)OC[C@H]1O[C@@H](n2cnc3c(N)ncnc32)[C@H](O)[C@@H]1OP(=O)(O)O [methacrylyl-CoA]
substrate selectivity of 4HBT ([2]; methacrylyl-CoA versus isobutyryl-CoA): selectivity for methacrylyl-CoA over isobutyryl-CoA | hydrolysis of substrate by 4HBT ([2]; substrate approximately 100 μM, DTNB 500 μM): catalysed the hydrolysis

oxidation of substrate by ACX4 [3]: oxidises
Compound: CC(C)C(=O)SCCNC(=O)CCNC(=O)[C@H](O)C(C)(C)COP(=O)(O)OP(=O)(O)OC[C@H]1O[C@@H](n2cnc3c(N)ncnc32)[C@H](O)[C@@H]1OP(=O)(O)O [isobutyryl-CoA]
